Assay results reported in patent US20230365589A1, “NOVEL AMINE DERIVATIVES” (Sumitomo Pharma Co., Ltd., priority 2020, published 2023).

Experiments:
Type in all cases: biochemical
[1] = biological target: T1, DYRK1B (Homo sapiens, UniProt Q9Y463); experiment: Inhibition test on activity of DYRK family, mobility shift assay (MSA): DYRK1B; settings: MSA, FITC-labeled DYRKtide peptide, ATP 200 μM; read-out: Inhibitory activity DYRK 1B (IC50 class)
T1 construct: purchased Carna Biosciences, Inc. 04-131
T1 sequence (Q9Y463 whole entry): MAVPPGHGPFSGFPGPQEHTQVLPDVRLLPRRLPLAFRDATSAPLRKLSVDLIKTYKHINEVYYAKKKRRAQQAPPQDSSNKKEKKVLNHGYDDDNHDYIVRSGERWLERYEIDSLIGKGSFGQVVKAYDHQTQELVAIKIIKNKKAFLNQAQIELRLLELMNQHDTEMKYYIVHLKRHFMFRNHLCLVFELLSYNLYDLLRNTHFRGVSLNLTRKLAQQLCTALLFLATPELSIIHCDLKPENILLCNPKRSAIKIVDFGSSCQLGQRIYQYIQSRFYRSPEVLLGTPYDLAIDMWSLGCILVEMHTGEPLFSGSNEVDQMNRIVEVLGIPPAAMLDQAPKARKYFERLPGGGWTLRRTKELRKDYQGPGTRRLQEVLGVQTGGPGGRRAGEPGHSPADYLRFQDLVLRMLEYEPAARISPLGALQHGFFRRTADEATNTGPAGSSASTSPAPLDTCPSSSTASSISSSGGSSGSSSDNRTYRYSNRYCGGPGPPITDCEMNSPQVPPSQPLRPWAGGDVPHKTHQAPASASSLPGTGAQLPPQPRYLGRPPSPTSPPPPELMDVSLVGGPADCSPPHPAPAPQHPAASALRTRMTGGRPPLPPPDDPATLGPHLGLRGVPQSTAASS
Experimental: [Inhibition Test on Activity of DYRK Family (DYRK1A, DYRK1B, DYRK2, and DYRK3)]
The kinase activity was measured by mobility shift assay (MSA) method using QuickScout Screening Assist™ MSA (commercially available kit manufactured by Carna Biosciences, Inc.). The substrate of the kinase reaction used was an FITC-labeled DYRKtide peptide included in the kit. An assay buffer [20 mM HEPES, 0.01% Triton X-100™, 2 mM dithiothreitol, pH 7.5]was used to create a substrate mixture solution with a substrate (4 μM), MgCl2(20 mM), and ATP (DYRK1A: 100 μM; DYRK1B: 200 μM; DYRK2: 40 μM; and DYRK3: 20 μM). In addition, kinases (DYRK1A: manufactured by Carna Biosciences, Inc., Cat. No. 04-130; DYRK1B: manufactured by Carna Biosciences, Inc., Cat. No. 04-131; DYRK2; manufactured by Carna Biosciences, Inc., Cat. No. 04-132; and DYRK3; manufactured by Carna Biosciences, Inc., Cat. No. 04-133) were diluted with the assay buffer to prepare enzyme solutions (DYRK1A: 0.2 ng/μL; DYRK1B: 0.08 ng/μL; DYRK2: 0.04 ng/μL; and DYRK3: 0.25 ng/μL). The 10 mM solution of the test compound in DMSO was further diluted with DMSO to 10 levels of the concentration (0.00003 mM, 0.0001 mM, 0.0003 mM, 0.001 mM, 0.003 mM, 0.01 mM, 0.03 mM, 0.1 mM, 0.3 mM, and 1 mM), each of which was subjected to 25-fold dilution with the assay buffer to obtain a drug solution (4% DMSO solution). 5 μL of the drug solution or a control solution (4% DMSO-assay buffer), 5 μL of the substrate mixture solution, and 10 μL of the enzyme solution were mixed in the wells of a polypropylene 384-well plate and allowed to react at room temperature for 1 hour, and then the reaction was quenched by adding 60 μL of the termination buffer included in the kit. Subsequently, the quantities of the substrates (S) and the phosphorylated substrate (P) in the reaction solution were measured using LabChip EZ Reader II system (manufactured by Caliper Life Sciences) according to the protocol of the assay kit.
The heights of the peaks of the “substrate” and the “phosphorylated substrate” were expressed as S and P, respectively, and a blank containing the assay buffer instead of the enzyme solution was also measured.
The inhibition rate (%) of the test compound was calculated according to the following equation:
Inhibition rate (%)=(1−(C−A)/(B−A))×100 • wherein, A, B, and C represent P/(P+S) of the blank well, P/(P+S) of the control solution well, and P/(P+S) of the compound-containing well, respectively.
The IC50 value was calculated via a regression analysis of the inhibition rate and the test compound concentration (logarithmic value).
The inhibiting activities of representative compounds of the present invention are shown against DYRK1A, DYRK1B, DYRK2, and DYRK3 in Tables.

[2] = biological target: T2, DYRK1A (Homo sapiens, UniProt Q13627); experiment: Inhibition test on activity of DYRK family, mobility shift assay (MSA): DYRK1A; settings: MSA, FITC-labeled DYRKtide peptide, ATP 100 μM; read-out: Inhibitory activity DYRK 1A (IC50 class)
T2 construct: purchased Carna Biosciences, Inc. 04-130
Summary of the method: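 IC50 derived by regressing inhibition rate on log compound concentration, using P/(P+S) peak ratios from electrophoretic separation. DYRK1A enzyme solution 0.2 ng/μL, substrate mix with 4 μM FITC-DYRKtide and 100 μM ATP, pH 7.5 HEPES; reaction run 1 h at room temperature.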

[3] = biological target: T3, DYRK3 (Homo sapiens, UniProt O43781); experiment: Inhibition test on activity of DYRK family, mobility shift assay (MSA): DYRK3; settings: MSA, FITC-labeled DYRKtide peptide, ATP 20 μM; read-out: Inhibitory activity DYRK 3 (IC50 class)
T3 construct: purchased Carna Biosciences, Inc. 04-133
T3 sequence (O43781 1-568 isoform O43781-2): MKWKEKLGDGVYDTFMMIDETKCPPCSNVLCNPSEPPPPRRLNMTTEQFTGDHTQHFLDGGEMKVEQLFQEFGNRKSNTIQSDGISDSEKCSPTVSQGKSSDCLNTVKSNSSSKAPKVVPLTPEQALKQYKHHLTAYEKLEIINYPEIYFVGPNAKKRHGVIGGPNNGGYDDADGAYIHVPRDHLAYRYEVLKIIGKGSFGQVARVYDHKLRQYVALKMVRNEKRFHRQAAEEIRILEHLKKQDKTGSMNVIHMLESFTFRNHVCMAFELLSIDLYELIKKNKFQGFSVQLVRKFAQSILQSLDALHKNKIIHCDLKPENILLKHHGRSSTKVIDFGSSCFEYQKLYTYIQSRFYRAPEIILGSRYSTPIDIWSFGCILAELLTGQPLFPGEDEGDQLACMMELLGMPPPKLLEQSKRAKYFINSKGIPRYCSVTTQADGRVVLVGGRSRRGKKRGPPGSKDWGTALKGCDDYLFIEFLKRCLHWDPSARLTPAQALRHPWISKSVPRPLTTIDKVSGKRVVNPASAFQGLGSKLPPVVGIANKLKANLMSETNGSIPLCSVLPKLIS
Summary of the method: (§1)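 Reactions ran 1 h at room temperature in HEPES buffer pH 7.5 with FITC-DYRKtide as substrate. ATP in the substrate mix was 100 µM for DYRK1A, 200 µM for DYRK1B, 40 µM for DYRK2 and 20 µM for DYRK3. Phosphorylated and unphosphorylated peptide were separated on a LabChip, and IC50 was regressed on log dose.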

[4] = biological target: T4, DYRK2 (Homo sapiens, UniProt Q92630); experiment: Inhibition test on activity of DYRK family, mobility shift assay (MSA): DYRK2; settings: MSA, FITC-labeled DYRKtide peptide, ATP 40 μM; read-out: Inhibitory activity DYRK 2 (IC50 class)
T4 construct: purchased Carna Biosciences, Inc. 04-132
T4 sequence (Q92630 74-601 limits assumed): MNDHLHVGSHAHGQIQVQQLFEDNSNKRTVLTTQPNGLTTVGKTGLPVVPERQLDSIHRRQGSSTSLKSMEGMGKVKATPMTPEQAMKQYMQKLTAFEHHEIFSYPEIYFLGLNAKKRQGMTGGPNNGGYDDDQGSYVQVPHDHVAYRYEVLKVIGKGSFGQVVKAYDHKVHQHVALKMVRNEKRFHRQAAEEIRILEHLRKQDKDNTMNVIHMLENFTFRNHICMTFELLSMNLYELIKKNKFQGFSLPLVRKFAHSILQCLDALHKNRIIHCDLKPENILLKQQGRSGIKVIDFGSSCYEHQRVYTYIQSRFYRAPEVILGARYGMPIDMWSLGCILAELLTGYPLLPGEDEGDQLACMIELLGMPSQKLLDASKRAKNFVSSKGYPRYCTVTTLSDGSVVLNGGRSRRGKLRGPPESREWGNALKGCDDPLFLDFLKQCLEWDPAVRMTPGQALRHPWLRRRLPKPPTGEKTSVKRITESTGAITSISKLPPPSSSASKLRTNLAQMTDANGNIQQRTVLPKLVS
Summary of the method: as §1

`CN1CC[C@@H]2NC(=O)N(c3nc4c5c(ccc4s3)OCC5)[C@@H]2C1` (relative stereo) [Example 7, cis-3-(7,8-Dihydrofuro[3,2-e][1,3]benzothiazol-2-yl)-5-methyloctahydro-2H-imidazo[4,5-c]pyridin-2-one] gave an IC50 [1] of 10 to 100 nM, an IC50 [2] of 10 to 100 nM and an IC50 [3] of no less than 1000 nM. It also gave an IC50 [4] of no less than 1000 nM.

In the case of `COCCN1CC[C@@H]2NC(=O)N(c3nc4c5c(ccc4s3)OCC5)[C@@H]2C1` (relative stereo) [Example 8, cis-3-(7,8-Dihydrofuro[3,2-e][1,3]benzothiazol-2-yl)-5-(2-methoxyethyl)octahydro-2H-imidazo[4,5-c]pyridin-2-one], the IC50 [1] is reported as 10 to 100 nM, the IC50 [2] is reported as 10 to 100 nM and the IC50 [3] is reported as no less than 1000 nM. For the same compound, the IC50 [4] was no less than 1000 nM.

For `CN1CC[C@@H]2[C@H](C1)NC(=O)N2c1nc2c3c(ccc2s1)OCC3` (relative stereo) [Example 9, cis-1-(7,8-dihydrofuro[3,2-e][1,3]benzothiazol-2-yl)-5-methyloctahydro-2H-imidazo[4,5-c]pyridin-2-one], the IC50 [1] was 10 to 100 nM, the IC50 [2] was 10 to 100 nM and the IC50 [3] was 100 to 1000 nM. It also gave an IC50 [4] of 100 to 1000 nM.

With `CCN1CC[C@H]2NC(=O)N(c3nc4c5c(ccc4s3)OCC5)[C@H]2C1` (relative stereo) [Example 11, cis-3-(7,8-dihydrofuro[3,2-e][1,3]benzothiazol-2-yl)-5-ethyloctahydro-2H-imidazo[4,5-c]pyridin-2-one] the IC50 [1] was 10 to 100 nM, the IC50 [2] was 10 to 100 nM and the IC50 [3] was no less than 1000 nM. For the same compound, the IC50 [4] was no less than 1000 nM.

For `CN1C[C@H]2NC(=O)N(c3nc4c5c(ccc4s3)OCC5)[C@H]2C1` (relative stereo) [Example 14, cis-1-(7,8-dihydrofuro[3,2-e][1,3]benzothiazol-2-yl)-5-methylhexahydropyrrolo[3,4-d]imidazol-2(1H)-one], the IC50 [1] was 10 to 100 nM, the IC50 [2] was 10 to 100 nM and the IC50 [3] was 10 to 100 nM. For the same compound, the IC50 [4] was 100 to 1000 nM.

Work on `CN1CC[C@H]2NC(=O)N(c3nc4c5c(ccc4s3)OCC5)[C@H]2C1` (single isomer, unassigned) [Example 27] yielded an IC50 [1] of no less than 1000 nM, an IC50 [2] of no less than 1000 nM and an IC50 [3] of no less than 1000 nM. The IC50 [4] was no less than 1000 nM.

`CN1CC[C@@H]2NC(=O)N(c3nc4c5c(ccc4s3)OCC5)[C@@H]2C1` (single isomer, unassigned) [Example 28] gave an IC50 [1] of 10 to 100 nM, an IC50 [2] of 10 to 100 nM and an IC50 [3] of no less than 1000 nM. It also gave an IC50 [4] of no less than 1000 nM.

For `O=C1N[C@H]2CCN(C3CC3)C[C@H]2N1c1nc2c3c(ccc2s1)OCCO3` (single isomer, unassigned) [Example 34], the IC50 [1] was 10 to 100 nM, the IC50 [2] was less than 10 nM and the IC50 [3] was no less than 1000 nM. The IC50 [4] was no less than 1000 nM.

`O=C1N[C@H]2CCN(C3CC3)C[C@H]2N1c1nc2c3c(ccc2s1)OCO3` (single isomer, unassigned) [Example 36] gave an IC50 [1] of less than 10 nM, an IC50 [2] of less than 10 nM and an IC50 [3] of no less than 1000 nM. It also gave an IC50 [4] of no less than 1000 nM.

In the case of `O=C1NC2CNCC2N1c1nc2c3c(ccc2s1)OCC3` (stereo not shown) [Example 3], the IC50 [1] is reported as 100 to 1000 nM, the IC50 [2] is reported as 100 to 1000 nM and the IC50 [3] is reported as 100 to 1000 nM. The IC50 [4] was no less than 1000 nM.

Compound `C[C@@H]1NC(=O)N(c2nc3c4c(ccc3s2)OCC4)[C@@H]1CN1CCOCC1` [Example 23, (4S,5R)-1-(7,8-dihydrofuro[3,2-e][1,3]benzothiazol-2-yl)-4-methyl-5-[(morpholin-4-yl)methyl]imidazolidin-2-one] has an IC50 [1] of less than 10 nM, an IC50 [2] of less than 10 nM and an IC50 [3] of 100 to 1000 nM. It also gave an IC50 [4] of 100 to 1000 nM.

For `C[C@H]1NC(=O)N(c2nc3c4c(ccc3s2)OCC4)[C@@H]1CN1CCOCC1` [Example 24, (4R,5R)-1-(7,8-dihydrofuro[3,2-e][1,3]benzothiazol-2-yl)-4-methyl-5-[(morpholin-4-yl)methyl]imidazolidin-2-one], the IC50 [1] was 10 to 100 nM, the IC50 [2] was 10 to 100 nM and the IC50 [3] was no less than 1000 nM. For the same compound, the IC50 [4] was no less than 1000 nM.

`C[C@H]1C[C@@H]2[C@H](CO1)NC(=O)N2c1nc2c3c(ccc2s1)OCC3` [Example 38, (3aR,6S,7aR)-1-(7,8-dihydrofuro[3,2-e][1,3]benzothiazol-2-yl)-6-methylhexahydropyrano[3,4-d]imidazol-2(3H)-one] showed an IC50 [1] of less than 10 nM, an IC50 [2] of less than 10 nM and an IC50 [3] of 100 to 1000 nM. It also gave an IC50 [4] of 100 to 1000 nM.

`C[C@H]1C[C@@H]2[C@H](CO1)NC(=O)N2c1nc2c3c(ccc2s1)OCCO3` [Example 39, (3aR,6S,7aR)-1-(7,8-dihydro[1,4]dioxino[2,3-e][1,3]benzothiazol-2-yl)-6-methylhexahydropyrano[3,4-d]imidazol-2(3H)-one] showed an IC50 [1] of less than 10 nM, an IC50 [2] of less than 10 nM and an IC50 [3] of 100 to 1000 nM. The IC50 [4] was 100 to 1000 nM.

`O=C1N[C@H]2CO[C@@H](CF)C[C@H]2N1c1nc2c3c(ccc2s1)OCC3` [Example 40, (3aR,6R,7aR)-1-(7,8-dihydrofuro[3,2-e][1,3]benzothiazol-2-yl)-6-(fluoromethyl)hexahydropyrano[3,4-d]imidazol-2(3H)-one] was tested, and the IC50 [1] was less than 10 nM, the IC50 [2] was less than 10 nM and the IC50 [3] was 10 to 100 nM. It also gave an IC50 [4] of 100 to 1000 nM.

`O=C1N[C@H]2CO[C@@H](CF)C[C@H]2N1c1nc2c3c(ccc2s1)OCCO3` [Example 41, (3aR,6R,7aR)-1-(7,8-dihydro[1,4]dioxino[2,3-e][1,3]benzothiazol-2-yl)-6-(fluoromethyl)hexahydropyrano[3,4-d]imidazol-2(3H)-one] showed an IC50 [1] of less than 10 nM, an IC50 [2] of less than 10 nM and an IC50 [3] of 10 to 100 nM. For the same compound, the IC50 [4] was 100 to 1000 nM.
